Laboratory results reported in patent US20240401144A2, “PRIMER-PROBE COMPOSITION, KIT, AND DETECTION METHOD” (ASCENTAWITS PHARMACEUTICALS, LTD., priority 2021, published 2024).

Columns and labels:
Assay in all cases: Ex vivo cytotoxicity assay, leukemia cell lines
Format in all cases: cell-based
[1] = tested on: Mono-Mac-6 cell line; settings: Homo sapiens; Table 5: Mono-Mac-6, AML-M5, 72 h; AKR1C3 expression Low
Description: (§1) Leukemia cell lines were suspended in RPMI medium supplemented with FBS (Biosera), while ALL PDX cells were cultured in QBSF medium (Quality Biological Inc.,) supplemented with Flt-3 ligand (20 ng/ml, BioNovus Life Sciences) or IL7 (10-20 ng/ml, Jomar Life Research). Cells were inoculated according to the optimal cell density and incubated for 3h or overnight (37° C., 5% CO2). PDX cells and leukemia cell lines were treated with OBI-3424 ([…]) or medium control for 48 or 72 h, respectively. Viability was determined using Alamar Blue reduction assay or Cell Titer-Glo Luminescent Cell Viability Assay (Promega). The half-maximal inhibitory concentration (IC50) was used to calculate the interpolation of nonlinear regression curves by GraphPad Prism 7 software.
(§2) The expression levels of AKR1C3 protein was determined by Western blot analysis. The ex vivo cytotoxicity of OBI-3424 was determined using CellTiter-Glo assay and calculated as 50% maximum inhibitory concentration (IC50).

[2] = tested on: NOMO-1 cell line; settings: Homo sapiens, AKR1C3 expression Medium
Description: as §1, §2

[3] = tested on: Reh cell line; settings: Homo sapiens
Description: as §1, §2

[4] = tested on: SUP-T1 cell line; settings: Homo sapiens
Description: as §1, §2

[5] = tested on: CCRF-CEM cell line; settings: Homo sapiens
Description: as §1, §2

[6] = tested on: ATN-1 cell line; settings: Homo sapiens; Table 5: ATN-1, T-ALL (adult), 72 h; AKR1C3 expression Low
Description: as §1, §2

[7] = tested on: TF-1 cell line; settings: Homo sapiens; Table 5: TF-1, Erythroleukemia, 72 h; AKR1C3 expression Medium
Description: as §1, §2

[8] = tested on: Jurkat, clone E6-1 cell line; settings: Homo sapiens
Description: as §1, §2

[9] = tested on: P30/OHK cell line; settings: Homo sapiens; Table 5: P30/OHK, T-ALL (pediatric), 72 h; AKR1C3 expression Low
Description: as §1, §2

[10] = tested on: TALL-1 cell line; settings: Homo sapiens
Description: as §1, §2

[11] = tested on: P116 cell line; settings: Homo sapiens
Description: as §1, §2

[12] = tested on: HL-60, clone 15 cell line; settings: Homo sapiens; Table 5: HL-60, clone 15, APL, 72 h; AKR1C3 expression Low
Description: as §1, §2

[13] = tested on: Jurkat cell line; settings: Homo sapiens
Description: as §1, §2

[14] = tested on: GR-ST cell line; settings: Homo sapiens, B-ALL (transfected with G-CSF)
Description: as §1, §2

[15] = tested on: KG-1 cell line; settings: Homo sapiens; Table 5: KG-1, Erythroleukemia, 72 h; AKR1C3 expression High
Description: as §1, §2

[16] = tested on: K-562 cell line; settings: Homo sapiens, K562; Table 5: K-562, CML, 72 h; AKR1C3 expression Low
Description: as §1, §2

[17] = tested on: P31/FUJ cell line; settings: Homo sapiens; Table 5: P31/FUJ, AML, 72 h; AKR1C3 expression Low
Description: as §1, §2

[18] = tested on: Kasumi-1 cell line; settings: Homo sapiens; Table 5: Kasumi-1, AML, 72 h; AKR1C3 expression Low
Description: as §1, §2

[19] = tested on: THP-1 cell line; settings: Homo sapiens; Table 5: THP-1, AML (pediatric), 72 h; AKR1C3 expression Low
Description: as §1, §2

[20] = tested on: PF-382 cell line; settings: Homo sapiens
Description: as §1, §2

[21] = tested on: MOLT-4 cell line; settings: Homo sapiens
Description: as §1, §2

C[C@H](OP(=O)(N1CC1)N1CC1)c1ccc([N+](=O)[O-])c(Oc2cccc(C(=O)N(C)C)c2)c1 [OBI-3424]
IC50 [1]: 29.8 nM | IC50 ([2]; Table 4: NOMO-1, AML (acute monocytic), CellTiter-Glo): 11 nM | IC50 ([2]; Table 5: NOMO-1, T-ALL (adult), 72 h): 11 nM | IC50 ([3]; Table 4: Reh, BCP-ALL, AKR1C3 expression Medium, CellTiter-Glo): 3 nM | IC50 ([3]; Table 5: Reh, ALL (non-T, non-B), 72 h, AKR1C3 expression Low): 3 nM | IC50 ([4]; Table 4: SUP-T1, T-ALL (child), AKR1C3 expression Strong, CellTiter-Glo): 3 nM | IC50 ([4]; Table 5: SUP-T1, T-ALL (pediatric), 72 h, AKR1C3 expression Medium): 3 nM | IC50 ([5]; Table 4: CCRF-CEM, T-ALL (child), AKR1C3 expression Strong, CellTiter-Glo): 3.7 nM | IC50 ([5]; Table 5: CCRF-CEM, T-ALL, 72 h, AKR1C3 expression High): 3.7 nM | IC50 [6]: > 1000 nM | IC50 [7]: 2.8 nM | IC50 ([8]; Table 4: Jurkat, Clone E6-1, T-ALL (child), AKR1C3 expression Medium, CellTiter-Glo): 24 nM | IC50 ([8]; Table 5: Jurkat, clone E6-1, T-ALL, 72 h, AKR1C3 expression Low): 24 nM | IC50 [9]: > 1000 nM | IC50 ([10]; Table 4: TALL-1, T-ALL (child), AKR1C3 expression Strong, CellTiter-Glo): 30 nM | IC50 ([10]; Table 5: TALL-1, T-ALL (pediatric), 72 h, AKR1C3 expression Medium): 30 nM | IC50 ([11]; Table 4: P116, T-ALL (Jurkat mutant), AKR1C3 expression Medium, CellTiter-Glo): 84 nM | IC50 ([11]; Table 5: P116, Jurkat mutant, 72 h, AKR1C3 expression Low): 84 nM | IC50 [12]: 87 nM | IC50 ([13]; Table 4: Jurkat, T-ALL (child), AKR1C3 expression Medium, CellTiter-Glo): 40 nM | IC50 ([13]; Table 5: Jurkat, T-ALL (pediatric), 72 h, AKR1C3 expression Low): 40 nM | IC50 ([14]; Table 4: GR-ST, AKR1C3 expression Strong, CellTiter-Glo): 9.9 nM | IC50 ([14]; Table 5: GR-ST, 72 h, AKR1C3 expression Medium): 9.9 nM | IC50 [15]: 153 nM | IC50 [16]: > 1000 nM | IC50 [17]: > 1000 nM | IC50 [18]: > 1000 nM | IC50 [19]: > 1000 nM | IC50 ([20]; Table 4: PF-382, T-ALL (child), AKR1C3 expression Strong, CellTiter-Glo): 15 nM | IC50 ([20]; Table 5: PF-382, T-ALL (pediatric), 72 h, AKR1C3 expression Medium): 15 nM | IC50 ([21]; Table 4: MOLT-4, T-ALL, AKR1C3 expression Strong, CellTiter-Glo): 10 nM | IC50 ([21]; Table 5: MOLT-4, T-ALL, 72 h, AKR1C3 expression Medium): 10 nM
